Source: US8436011B2, “Pyridinopyridinone derivatives, preparation thereof and therapeutic use thereof” (Sanofi, priority 2008, dated 2013)
“And” between values parts separate entries of the source, which are not always exact repeats. Equal entries are not always repeated. Structures can show the parent of a compound that is named as a salt.

melting point	SMILES
138 °C	CCN1CCCC1CN(C)C(=O)Cc1ccc(-c2ccc3c(=O)c(C(=O)NC)c(N)n(CC)c3n2)cc1 (stereo not shown)
170 °C	CCN1C[C@H](F)C[C@H]1CNC(=O)Cc1ccc(-c2ccc3c(=O)c(C(=O)NC)c(N)n(CC)c3n2)cc1 (as salt: HCl) [compound 26, 2-amino-1-ethyl-7-{4-[2-({[(2S,4R)-1-ethyl-4-fluoropyrrolidin-2-yl]methyl}-amino)-2-oxoethyl]phenyl}-N-methyl-4-oxo-1,4-dihydro-1,8-naphthyridine-3-carboxamide]
178 °C	CCN1CCCC1CNC(=O)Cc1ccc(-c2ccc3c(=O)c(C(=O)NC)c(N)n(CC)c3n2)c(C)c1 (stereo not shown) [compound 61, 2-amino-1-ethyl-7-[4-(2-{[(1-ethylpyrrolidin-2-yl)methyl]amino}-2-oxoethyl)-2-methylphenyl]-N-methyl-4-oxo-1,4-dihydro-1,8-naphthyridine-3-carboxamide]
300 °C	CCN1CCCC1CNC(=O)Cc1ccc(-c2ccc3c(=O)c(C(=O)NC)c(N)n(CC(F)(F)F)c3n2)cc1 (stereo not shown) [compound 49, 2-amino-7-[4-(2-{[(1-ethylpyrrolidin-2-yl)methyl]amino}-2-oxoethyl)-phenyl]-N-methyl-4-oxo-1-(2,2,2-trifluoroethyl)-1,4-dihydro-1,8-naphthyridine-3-carboxamide]
275 °C	CCN1CCCC1CNC(=O)Cc1ccc(-c2ccc3c(=O)c(C(=O)NC)c(N)n(CC)c3n2)cc1F (stereo not shown) [compound 58, 2-amino-7-[3-fluoro-4-(2-{[(1-ethylpyrrolidin-2-yl)methyl]amino}-2-oxoethyl)phenyl]-1-ethyl-N-methyl-4-oxo-1,4-dihydro-1,8-naphthyridine-3-carboxamide]
188 to 190 °C and 190 °C	CCN1CCOCC1CNC(=O)Cc1ccc(-c2ccc3c(=O)c(C(=O)NC)c(N)n(CC)c3n2)cc1 (stereo not shown) (as salt: HCl) [compound 22, 2-amino-1-ethyl-7-[4-(2-{[(4-ethylmorpholin-3-yl)methyl]amino}-2-oxoethyl)phenyl]-N-methyl-4-oxo-1,4-dihydro-1,8-naphthyridine-3-carboxamide]
230 °C	CNC(=O)c1c(N)n(CCCOC)c2nc(-c3ccc(CC(=O)Nc4ccccn4)cc3)ccc2c1=O (as salt: HCl)
242 °C	CCn1c(N)c(C(=O)NC)c(=O)c2ccc(-c3ccc(CCNc4ccccn4)cc3)nc21 (as salt: HCl) [compound 64, 2-amino-1-ethyl-N-methyl-4-oxo-7-{4-[2-(pyrid-2-ylamino)ethyl]phenyl}-1,4-dihydro-1,8-naphthyridine-3-carboxamide]
233 °C	CCN1CCC[C@@H]1CNC(=O)Cc1ccc(-c2ccc3c(=O)c(C(=O)NC)c(N)n(CC(C)C)c3n2)cc1 [compound 53, 2-amino-7-{4-[2-({[(2R)-1-ethylpyrrolidin-2-yl]methyl}amino)-2-oxoethyl]-phenyl}-N-methyl-1-(2-methylpropyl)-4-oxo-1,4-dihydro-1,8-naphthyridine-3-carboxamide]
262 °C	CCn1c(N)c(C(=O)NC)c(=O)c2ccc(-c3ccc(CC(=O)NCCOC)cc3)nc21 [compound 9, 2-amino-1-ethyl-7-(4-{2-[(2-methoxyethyl)amino]-2-oxoethyl}phenyl)-N-methyl-4-oxo-1,4-dihydro-1,8-naphthyridine-3-carboxamide]
> 260 °C	CCn1c(N)c(C(=O)NC)c(=O)c2ccc(-c3ccc(CC(=O)NC[C@H]4CCCN4CC(F)(F)F)cc3)nc21 [compound 30, 2-amino-1-ethyl-N-methyl-4-oxo-7-{4-[2-oxo-2-({[(2R)-1-(2,2,2-trifluoroethyl)pyrrolidin-2-yl]methyl}amino)ethyl]phenyl}-1,4-dihydro-1,8-naphthyridine-3-carboxamide]
> 260 °C	CCn1c(N)c(C(=O)NC)c(=O)c2ccc(-c3ccc(CC(=O)NC[C@H]4CCCN4S(C)(=O)=O)cc3)nc21 [compound 28, 2-amino-1-ethyl-N-methyl-7-{4-[2-({[(2R)-1-(methylsulfonyl)pyrrolidin-2-yl]methyl}amino)-2-oxoethyl]phenyl}-4-oxo-1,4-dihydro-1,8-naphthyridine-3-carboxamide]
270 °C	CCn1c(N)c(C(=O)NC)c(=O)c2ccc(-c3ccc(CC(=O)NCc4cncn4C)cc3)nc21 (as salt: HCl) [compound 36, 2-amino-1-ethyl-N-methyl-7-[4-(2-{[(1-methyl-1H-imidazol-5-yl)methyl]amino}-2-oxoethyl)phenyl]-4-oxo-1,4-dihydro-1,8-naphthyridine-3-carboxamide]
176 °C	CCn1c(N)c(C(=O)NC)c(=O)c2ccc(-c3cccc(CC(=O)Nc4ccccn4)c3)nc21 (as salt: HCl) [compound 63, 2-amino-1-ethyl-N-methyl-4-oxo-7-{3-[2-oxo-2-(pyrid-2-ylamino)ethyl]-phenyl}-1,4-dihydro-1,8-naphthyridine-3-carboxamide]
266 °C	CCN1CC(F)(F)C[C@H]1CNC(=O)Cc1ccc(-c2ccc3c(=O)c(C(=O)NC)c(N)n(CC)c3n2)cc1 (as salt: HCl) [compound 24, 2-amino-1-ethyl-7-{4-[2-({[(2S)-1-ethyl-4,4-difluoropyrrolidin-2-yl]methyl}-amino)-2-oxoethyl]phenyl}-N-methyl-4-oxo-1,4-dihydro-1,8-naphthyridine-3-carboxamide]
192 °C	CCn1c(N)c(C(=O)NC)c(=O)c2ccc(-c3ccc(CC(=O)NCC4COCCN4C(C)C)cc3)nc21 (stereo not shown) (as salt: HCl) [compound 32, 2-amino-1-ethyl-N-methyl-7-{4-[2-({[4-(1-methylethyl)morpholin-3-yl]-methyl}amino)-2-oxoethyl]phenyl}-4-oxo-1,4-dihydro-1,8-naphthyridine-3-carboxamide]
315 °C	CCn1c(N)c(C(=O)NC)c(=O)c2ccc(-c3ccc(CC(=O)NC(C)C)cc3)nc21 [compound 11, 2-amino-1-ethyl-N-methyl-7-(4-{2-[(1-methylethyl)amino]-2-oxoethyl}-phenyl)-4-oxo-1,4-dihydro-1,8-naphthyridine-3-carboxamide]
230 °C	CCn1c(N)c(C(=O)NC)c(=O)c2ccc(-c3ccc(CC(=O)NCc4ccncc4)cc3)nc21 (as salt: HCl) [compound 7, 2-amino-1-ethyl-N-methyl-4-oxo-7-(4-{2-oxo-2-[(pyrid-4-ylmethyl)amino]-ethyl}phenyl)-1,4-dihydro-1,8-naphthyridine-3-carboxamide]
260 °C	CCN1CCCC1CNC(=O)Cc1ccc(-c2ccc3c(=O)c(C(=O)NC)c(N)n(CC4CC4)c3n2)cc1 (stereo not shown)
268 °C	CCn1c(N)c(C(=O)NC)c(=O)c2ccc(-c3ccc(CC(=O)NCc4ccccn4)cc3)nc21 (as salt: HCl) [compound 8, 2-amino-1-ethyl-N-methyl-4-oxo-7-(4-{2-oxo-2-[(pyrid-2-ylmethyl)amino]-ethyl}phenyl)-1,4-dihydro-1,8-naphthyridine-3-carboxamide]
262 °C	CCN1CCC[C@H]1CNC(=O)Cc1ccc(-c2ccc3c(=O)c(C(=O)NC)c(N)n(CC)c3n2)cc1 [compound 15, 2-amino-1-ethyl-7-{4-[2-({[(2S)-1-ethylpyrrolidin-2-yl]methyl}amino)-2-oxoethyl]phenyl}-N-methyl-4-oxo-1,4-dihydro-1,8-naphthyridine-3-carboxamide]
220 to 222 °C	CCn1c(N)c(C(=O)NC)c(=O)c2ccc(-c3ccc(CC(=O)NCCN4CCOCC4)cc3)nc21 (as salt: HCl) [compound 18, 2-amino-1-ethyl-N-methyl-7-(4-{2-[(2-morpholin-4-ylethyl)amino]-2-oxoethyl}phenyl)-4-oxo-1,4-dihydro-1,8-naphthyridine-3-carboxamide]
258 °C	CCn1c(N)c(C(=O)NC)c(=O)c2ccc(-c3ccc(CC(=O)Nc4ccccn4)cc3)nc21 (as salt: HCl) [compound 4, 2-amino-1-ethyl-N-methyl-4-oxo-7-{4-[2-oxo-2-(pyrid-2-ylamino)ethyl]-phenyl}-1,4-dihydro-1,8-naphthyridine-3-carboxamide]
270 °C	CCn1c(N)c(C(=O)NC)c(=O)c2ccc(-c3ccc(CC(=O)NCCc4ccccc4)cc3)nc21
194 °C	CCn1c(N)c(C(=O)NC)c(=O)c2ccc(-c3ccc(CC(=O)NC[C@H]4CCCN4CCF)cn3)nc21 (as salt: HCl) [compound 29, 2-amino-1-ethyl-7-{5-[2-({[(2R)-1-(2-fluoroethyl)pyrrolidin-2-yl]methyl}-amino)-2-oxoethyl]pyrid-2-yl}-N-methyl-4-oxo-1,4-dihydro-1,8-naphthyridine-3-carboxamide]
300 °C	CCn1c(N)c(C(=O)NC)c(=O)c2ccc(-c3ccc(CC(=O)NC4CCCC4)cc3)nc21
299 °C	CCn1c(N)c(C(=O)NC)c(=O)c2ccc(-c3ccc(CC(=O)Nc4ccccc4)cc3)nc21
214 to 228 °C	CCn1c(N)c(C(=O)NC)c(=O)c2ccc(-c3ccc(CC(=O)NC[C@H]4CCCN4CC(F)F)cc3)nc21 (as salt: HCl) [compound 31, 2-amino-7-{4-[2-({[(2R)-1-(2,2-difluoroethyl)pyrrolidin-2-yl]methyl}amino)-2-oxoethyl]phenyl}-1-ethyl-N-methyl-4-oxo-1,4-dihydro-1,8-naphthyridine-3-carboxamide]
252 °C	CCn1c(N)c(C(=O)NC)c(=O)c2ccc(-c3ccc(CC(=O)NCCc4cccn4C)cc3)nc21 [compound 42, 2-amino-1-ethyl-N-methyl-7-[4-(2-{[2-(1-methyl-1H-pyrrol-2-yl)-ethyl]amino}-2-oxoethyl)phenyl]-4-oxo-1,4-dihydro-1,8-naphthyridine-3-carboxamide]
199 °C	CCN1CCOCC1CNC(=O)Cc1ccc(-c2ccc3c(=O)c(C(=O)NC)c(N)n(CC)c3n2)cn1 (stereo not shown) (as salt: HCl) [compound 23, 2-amino-1-ethyl-7-[6-(2-{[(4-ethylmorpholin-3-yl)methyl]amino}-2-oxoethyl)pyrid-3-yl]-N-methyl-4-oxo-1,4-dihydro-1,8-naphthyridine-3-carboxamide]

SMILES	melting point
CCn1c(N)c(C(=O)NC)c(=O)c2ccc(-c3ccc(CC(=O)Nc4ccccn4)cn3)nc21 (as salt: HCl) [compound 19, 2-amino-1-ethyl-N-methyl-4-oxo-7-{5-[2-oxo-2-(pyrid-2-ylamino)-ethyl]pyrid-2-yl}-1,4-dihydro-1,8-naphthyridine-3-carboxamide]	268 to 288 °C
